The values below come from PubChem BioAssay (NCI).

Values joined by “and” are separate entries in the source; they are usually repeats but may differ in a detail not shown here. Equal values may be shown once.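 Assay format: 96-well plates, 48-hour exposure. Here, GI50 denotes the concentration required for 50% inhibition of growth. TGI denotes the concentration required for complete inhibition of growth.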

Test systems include SF-539 CNS; SK-MEL-5 melanoma; OVCAR-8 ovarian; T-47D breast; MDA-MB-435; SN12C renal; HL-60(TB) leukemia; CCRF-CEM leukemia; NCI-H460 lung; CAKI-1 renal.
What all share (test): NCI-60 cell line screen, 48 h

As for `CCN(CC)CCC(=O)OC1C(C)=CC(C)C(=O)CC(C(C)CC2CCC(O)C(OC)C2)OC(=O)C2CCCCN2C(=O)C(=O)[C@@]2(O)OC(CCC2C)CC(OC)\C(C)=C/C=C/C=C/C(C)CC(C)C(=O)C1OC` (stereo partly drawn), the TGI with SF-539 CNS stood at 15.2 µM; in the assay on SK-MEL-5 melanoma, 17.2 µM; in the assay on OVCAR-8 ovarian it was 22.5 µM; with T-47D breast, 14.6 µM; with MDA-MB-435, 21.2 µM; in the assay with SN12C renal, 21.1 µM. Also, the TGI in the assay on HL-60(TB) leukemia was determined as 16 µM; with CCRF-CEM leukemia, 13.8 µM; in the assay with NCI-H460 lung, 23.8 µM; in the assay with CAKI-1 renal it was 21.5 µM.
As to `CCn1c(-c2c(Cl)cc(O)cc2Cl)cc2c(Cl)cc(O)cc21`, the TGI was 23.2 µM in the assay on SF-539 CNS; 12.5 µM in the assay with SK-MEL-5 melanoma; 18.7 µM with OVCAR-8 ovarian; 27.4 µM in the assay on T-47D breast; 13 µM in the assay with MDA-MB-435; over 100 µM in the assay on SN12C renal. The TGI is 26.2 µM in the assay with HL-60(TB) leukemia, over 100 µM in the assay with CCRF-CEM leukemia, 18.4 µM with NCI-H460 lung and 30.5 µM with CAKI-1 renal.
In the case of `CN(C)c1ccc(C(=N)c2ccc(N(C)C)cc2)cc1`, the GI50 in the assay on SF-539 CNS was 2.88 µM and 3.5 µM; in the assay on SK-MEL-5 melanoma it was 2.74 µM and 2.92 µM; in the assay on OVCAR-8 ovarian, 3.79 µM and 3.55 µM; in the assay with T-47D breast, 5.51 µM and 3.42 µM; in the assay on MDA-MB-435, 0.375 µM and 0.382 µM; with SN12C renal, 6.32 µM and 6.04 µM. Moreover, the GI50 with HL-60(TB) leukemia was 3.3 µM; with CCRF-CEM leukemia it was 5.33 µM; in the assay with NCI-H460 lung, 3.01 µM and 3.54 µM; in the assay on CAKI-1 renal, 1.62 µM and 3.57 µM. Also, the TGI in the assay on SF-539 CNS was 11.5 µM and 25.7 µM; with SK-MEL-5 melanoma, 10.9 µM and 13.2 µM; in the assay with OVCAR-8 ovarian it was 19.1 µM and 28.1 µM; with T-47D breast, 44.8 µM and 29.2 µM; in the assay with MDA-MB-435, 3.19 µM and 9.02 µM; with SN12C renal, over 100 µM. Besides, the TGI is 14.8 µM in the assay on HL-60(TB) leukemia; 64.5 µM in the assay on CCRF-CEM leukemia; 12.6 µM and 20 µM in the assay with NCI-H460 lung; 14.6 µM and 68.5 µM with CAKI-1 renal.
Regarding `C=C(C)[C@@H]1C/C=C(/CO)CC[C@H]2O[C@]2(C)CC/C=C(\C)CC1`, the GI50 was 18 µM in the assay on SF-539 CNS; 12.7 µM in the assay on SK-MEL-5 melanoma; 24 µM in the assay with OVCAR-8 ovarian; 17.4 µM in the assay on T-47D breast; 13.5 µM with MDA-MB-435; 14.6 µM with SN12C renal. Also, the GI50 was 8.12 µM with HL-60(TB) leukemia, 12.5 µM in the assay with CCRF-CEM leukemia, 11.5 µM in the assay with NCI-H460 lung and 17.1 µM in the assay on CAKI-1 renal. The TGI with SF-539 CNS was determined as 33.7 µM; with SK-MEL-5 melanoma, 25.5 µM; in the assay on OVCAR-8 ovarian, 58.4 µM; with T-47D breast, 47.8 µM; in the assay with MDA-MB-435, 29.2 µM; in the assay with SN12C renal, 29 µM. Also, the TGI in the assay on HL-60(TB) leukemia turned out to be 24 µM; in the assay on CCRF-CEM leukemia, 34.8 µM; in the assay with NCI-H460 lung, 27 µM; in the assay on CAKI-1 renal, 34.8 µM.
In the case of `COc1cc(OC)c(/C=C/C(=O)c2ccc(Nc3ncnc4ccccc34)cc2)c(OC)c1`, the GI50 was 0.837 µM in the assay on SF-539 CNS; 0.426 µM with SK-MEL-5 melanoma; 1.34 µM with OVCAR-8 ovarian; 1.51 µM with T-47D breast; 0.13 µM with MDA-MB-435; 1.66 µM in the assay on SN12C renal. Moreover, the GI50 with HL-60(TB) leukemia is 0.389 µM; in the assay on CCRF-CEM leukemia, 0.629 µM; in the assay with NCI-H460 lung, 0.394 µM; in the assay with CAKI-1 renal, 1.31 µM. Moreover, the TGI in the assay with SF-539 CNS is 2.31 µM; in the assay with SK-MEL-5 melanoma, 1.98 µM; with OVCAR-8 ovarian it was 3.54 µM; in the assay with T-47D breast, 14.3 µM; in the assay on MDA-MB-435 it was 0.522 µM; with SN12C renal it was 10 µM. The TGI came to 2.19 µM in the assay on HL-60(TB) leukemia, 5.51 µM with CCRF-CEM leukemia, 2.01 µM in the assay on NCI-H460 lung and 15.2 µM with CAKI-1 renal.
Regarding `O=C1NC(=O)[C@@]2(CC[C@@H](O)C2)c2ccncc21`, the TGI with SF-539 CNS, with SK-MEL-5 melanoma, in the assay on OVCAR-8 ovarian, in the assay with T-47D breast, in the assay on MDA-MB-435 and in the assay on SN12C renal was over 100 µM throughout. The TGI with HL-60(TB) leukemia, in the assay with CCRF-CEM leukemia, in the assay with NCI-H460 lung and in the assay with CAKI-1 renal was over 100 µM throughout.
Regarding `O=C1C=C2C=CC3CC2(O1)C1CCCCN31` (stereo not drawn), the GI50 with SF-539 CNS was 12.7 µM and 27 µM and 23.2 µM; in the assay on SK-MEL-5 melanoma, 15.9 µM and 19.9 µM and 34.9 µM; with T-47D breast, 22.3 µM and 14.1 µM and 53.4 µM; with MDA-MB-435, 10.1 µM and 8.06 µM and 22 µM; in the assay with SN12C renal, 11.8 µM and 14.8 µM and 25 µM; in the assay on CCRF-CEM leukemia it was 15.3 µM and 11 µM and 28.4 µM. Moreover, the GI50 with NCI-H460 lung is 22.1 µM and 15.1 µM and 31.7 µM; with CAKI-1 renal, 17.7 µM and 22.3 µM and 43.3 µM. Also, the TGI with SF-539 CNS is 35.8 µM and > 100 µM and 75.4 µM; in the assay with SK-MEL-5 melanoma it was 33.5 µM and 54.5 µM and > 100 µM; in the assay with OVCAR-8 ovarian it was 72.6 µM and 40.2 µM and 93.8 µM; in the assay on T-47D breast it was 71.6 µM and 36.2 µM and > 100 µM; in the assay with MDA-MB-435 it was 41.6 µM and 39.3 µM and 66.3 µM; in the assay with SN12C renal it was 31.4 µM and 33.7 µM and 74.4 µM. Also, the TGI was 79.2 µM in the assay with HL-60(TB) leukemia; 96.6 µM and 41.3 µM and 83.3 µM in the assay on CCRF-CEM leukemia; 96.3 µM and 67.1 µM and > 100 µM with NCI-H460 lung; 78.8 µM and 79.5 µM and > 100 µM in the assay with CAKI-1 renal.
